Data from ChEMBL document CHEMBL1153674, “Synthesis and incorporation of 2-amino acid conjugated nucleotides into ribozymes” (Bioorg Med Chem Lett, 1995).

Test: Half-life was determined
Assay type: ADME
Settings: human

Row | Compound | half-life
1 | COc1ccc(C(OCC2OC(n3ccc(=O)[nH]c3=O)C(NC(=O)[C@H](NC(=O)OCC3c4ccccc4-c4ccccc43)c3ccccc3)C2O)(c2ccccc2)c2ccc(OC)cc2)cc1 (some centres undefined) | 3 min
2 | N[C@@H]1[C@H](O)[C@@H](CO)O[C@H]1n1ccc(=O)[nH]c1=O | 1.5 min
3 | COc1ccc(C(OCC2OC(n3ccc(=O)[nH]c3=O)C(NC(=O)[C@@H](CC(=O)OCc3ccccc3)NC(=O)OCC3c4ccccc4-c4ccccc43)C2O)(c2ccccc2)c2ccc(OC)cc2)cc1 (some centres undefined) | 8 min
4 | O=C(NCCCC[C@@H](NC(=O)OCC1c2ccccc2-c2ccccc21)C(=O)NC1C(O)C(CO)OC1n1ccc(=O)[nH]c1=O)OCC1c2ccccc2-c2ccccc21 (some centres undefined) | 1 min
5 | COc1ccc(C(OCC2OC(n3ccc(=O)[nH]c3=O)C(NC(=O)[C@@H](C)NC(=O)OCC3c4ccccc4-c4ccccc43)C2O)(c2ccccc2)c2ccc(OC)cc2)cc1 (some centres undefined) | 13 min
6 | O=C(N[C@@H](C(=O)NC1C(O)C(CO)OC1n1ccc(=O)[nH]c1=O)c1ccccc1)OCC1c2ccccc2-c2ccccc21 (some centres undefined) | 2 min
7 | C[C@@H](NC(=O)OCC1c2ccccc2-c2ccccc21)C(=O)NC1C(O)C(CO)OC1n1ccc(=O)[nH]c1=O (some centres undefined) | 1.5 min
8 | COc1ccc(C(OCC2OC(n3ccc(=O)[nH]c3=O)C(NC(=O)[C@@H](CCCCNC(=O)OCC3c4ccccc4-c4ccccc43)NC(=O)OCC3c4ccccc4-c4ccccc43)C2O)(c2ccccc2)c2ccc(OC)cc2)cc1 (some centres undefined) | 11.5 min
9 | O=C(C[C@@H](NC(=O)OCC1c2ccccc2-c2ccccc21)C(=O)NC1C(O)C(CO)OC1n1ccc(=O)[nH]c1=O)OCc1ccccc1 (some centres undefined) | 1 min
